Values of other authors, collected in patent US20030119882A1, “Solid pharmaceutical composition containing torasemide” (priority 2001, published 2003).

Details: present in very fine dispersion in a pharmaceutical tablet; prior art, cf. EP 212 537 A

SMILES: Cc1cccc(Nc2ccncc2S(=O)(=O)NC(=O)NC(C)C)c1 [torasemide of the modification II, 1-isopropyl-3-[(4-m-toluidino-3-pyridyl)sulphonyl]urea]
- Rearrangement of modification II to modification I: rearranges more or less rapidly to the modification I
